{
  "source": "patent US20050221987A1",
  "about": "“Use of certain phospholipids to deliver hormonal effects to plants” (priority 2004, published 2005)",
  "key": {"[1]": {"system": "Bolivian Rainbow Peppers", "experiment": "Color impact on hot pepper (greenhouse)", "assay_type": "in vivo", "protocol": "The color impact of NALPE-2 on hot pepper. Potted ornamental peppers (var. Bolivian Rainbow Peppers) in laboratory greenhouses located in Middleton, Wis. were treated with NALPE-2 (50 mg/L). […] 40-50 fruits were tagged and labeled. The pepper color stage was noted prior to application and two plants were used. Ambient conditions in the greenhouse at the time of application were about 80° F. and 70% relative humidity. Drying time was approximately 0.5 hr. After 14 days the peppers were harvested and color group sorting was performed."}, "[2]": {"system": "radish cotyledons", "experiment": "Radish cotyledon bioassay (kinetin-induced expansion growth and chlorophyll content)", "assay_type": "in vivo, Raphanus sativus L. cv. Cherry-Belle", "settings": "for Type of hormone-like activity: radish cotyledon bioassay", "protocol": "Radish cotyledon bioassay. The radish cotyledon bioassay was essentially as described by Letham D S (1971) Physiologia Plantarum 25:391-396, which is herein incorporated by reference in its entirety. Seeds of Raphanus sativus L. cv. Cherry-Belle were germinated in darkness at 25° C. for 36 hours in Petri dishes containing filter paper wetted with distilled water. The smaller of the two cotyledons was excised, the fresh weight determined, and 10 cotyledons placed adaxial side down on filter paper in Petri dishes containing potassium phosphate buffer (2 mM, pH 6.0) with kinetin (0.2 mg/L, added to simulate natural growing conditions) and the compounds to be tested at 20 mg/L. Cotyledons were then incubated under continuous illumination up to 72 hours at 25° C. and the increase in fresh weight determined. Chlorophyll content was determined after extraction of tissue into 80% ethanol (containing butylated hydroxytoluene, 10 mg/L) and quantified spectrophotometrically using the equations Chl a=(13.95A663)−(6.88A647) and Chl b=(24.96A652)−(7.32A663) as described by Lichtenthal H K (1987) Methods in Enzymology 148:350-382, which is herein incorporated by reference in its entirety."}, "[3]": {"system": "radish hypocotyls", "experiment": "Radish hypocotyl bioassay for anthocyanins", "assay_type": "in vivo, Raphanus sativus L. cv. Cherry-Belle", "protocol": "Radish hypocotyl bioassay for anthocyanins. An anthocyanin bioassay was developed using intact germinated seeds of radish (Raphanus sativus L. cv. Cherry-Belle). Seeds of radish were germinated in darkness at 25° C. for 40 hours in Petri dishes containing filter paper wetted with distilled water. Whole seedlings were transferred to Petri dishes containing the test solutions in potassium phosphate buffer (2 mM, pH 6.0 containing 0.2 mg/L kinetin to simulate natural growing conditions). The seedlings were incubated under bright light for 28 h prior to extraction of hypocotyl tissue and spectrophotometric quantification of anthocyanins. Anthocyanin content was determined spectrophotometrically after tissue extraction into 99 parts ethanol and 1 part concentrated HCl. The absorbance of the acidic ethanol fraction was measured at 510 nm and the final anthocyanin content calculated using an extinction coefficient of 31.76 mmol cm^−1 for raphanisuns (Ishikura N. and Hayashi K. Chromatographic separation and characterization of the component anthocyanins in radish root. Botanical Magazine Tokyo 76:6-13, 1963, which is herein incorporated by reference in its entirety)."}, "[4]": {"system": "Hydroponic tomatoes (var. Trust)", "experiment": "Color impact on tomato (greenhouse spray)", "assay_type": "in vivo", "protocol": "The color impact of NALPE-2 on tomato. Hydroponic tomatoes (var. Trust) in a commercial greenhouse located in Arena, Wis. were treated with NALPE-2 (50 mg/L) using a hand pump spray bottle. Five tomato clusters each with 3-5 fruit in the early ripening stages (breaker) were used. The clusters were sprayed such that little overspray left the immediate area as to not contaminate other vines. Ambient conditions in the greenhouse at the time of application were about 75° F. and 70% relative humidity, full sun. Drying time was approximately 0.5 hr. Fruit were harvested after 7 days and transported to the laboratory for visual color comparison."}, "[5]": {"system": "radish cotyledons", "experiment": "Radish cotyledon bioassay (kinetin-induced expansion growth and chlorophyll content)", "assay_type": "in vivo, Raphanus sativus L. cv. Cherry-Belle", "settings": "kinetin 0.2 mg/l, 72 hours; for Change in fresh weight: n = 9"}, "[6]": {"settings": "NALPE-2 50 mg/L applied 14 days prior to harvest, Bolivian Rainbow Peppers"}, "[7]": {"settings": "NALPE-2 50 mg/L applied 7 days prior to harvest, tomatoes"}, "[8]": {"settings": "NAPE-2 20 mg/L, kinetin 0.2 mg/l, 72 hours"}},
  "note": "Where “and” joins values, the source holds several entries; their conditions need not be identical. Equal values may be shown once.",
  "data": [
    {"substance": "N-acetyl lysophosphatidylethanolamine [NALPE-2]", "values": [
      {"measurement": "Color Stage Blue", "setting": "[1]; [6]", "value": 22, "unit": "%"},
      {"measurement": "Color Stage Orange", "setting": "[1]; [6]", "value": 20, "unit": "%"},
      {"measurement": "Color Stage Purple", "setting": "[1]; [6]", "value": 19, "unit": "%"},
      {"measurement": "Color Stage Red", "setting": "[1]; [6]", "value": 32, "unit": "%"},
      {"measurement": "Color Stage Yellow", "setting": "[1]; [6]", "value": 6, "unit": "%"},
      {"measurement": "Effect on color development in hot peppers", "setting": "[1]; Table 5", "value": "accelerated color development"},
      {"measurement": "Change in fresh weight, % of control", "setting": "[2]; NALPE-2 20 mg/l, kinetin 0.2 mg/l, 72 hours", "value": "66 % of control"},
      {"measurement": "Change in fresh weight", "setting": "[2]; NALPE-2 20 mg/l, kinetin 0.2 mg/l, 72 hours, n = 9", "value": "9.88 ± 4.93", "unit": "mg"},
      {"measurement": "Effect on expansion growth of radish cotyledons", "setting": "[2]; Table 2, dependent upon concentration", "value": "inhibitory activity"},
      {"measurement": "Type of hormone-like activity", "setting": "[2]", "value": "ethylene-like activity"},
      {"measurement": "Anthocyanin", "setting": "[3]; NALPE-2 15 mg/l, kinetin 0.2 mg/l, 25° C., 28 hours, n = 4", "value": "2.637 ± 0.005", "unit": "μg/hypocotyl"},
      {"measurement": "Anthocyanin, % of control", "setting": "[3]; NALPE-2 15 mg/l, kinetin 0.2 mg/l, 28 hours", "value": "125 % of control"},
      {"measurement": "Effect on anthocyanin pigment in radish hypocotyls", "setting": "[3]; summary of Table 3", "value": "enhanced the amount of anthocyanin pigment"},
      {"measurement": "Color Stage Light Red", "setting": "[4]; [7]", "value": 17, "unit": "%"},
      {"measurement": "Color Stage Others (breaker, turning, and pink stage)", "setting": "[4]; [7]", "value": 16, "unit": "%"},
      {"measurement": "Color Stage Red", "setting": "[4]; [7]", "value": 67, "unit": "%"},
      {"measurement": "Effect on color development in tomatoes", "setting": "[4]; text summary of Table 4", "value": "accelerated color development"},
      {"measurement": "Change in fresh weight, % of control", "setting": "[5]; NALPE-2 0.2 mg/l", "value": "92 % of control"},
      {"measurement": "Change in fresh weight", "setting": "[5]; NALPE-2 0.2 mg/l", "value": "13.68 ± 4.79", "unit": "mg"},
      {"measurement": "Change in fresh weight, % of control", "setting": "[5]; NALPE-2 200 mg/l", "value": "58 % of control"},
      {"measurement": "Change in fresh weight", "setting": "[5]; NALPE-2 200 mg/l", "value": "8.64 ± 5.46", "unit": "mg"}
    ]},
    {"substance": "N-acetylphosphatidylethanolamine [NAPE-2]", "values": [
      {"measurement": "Effect on total amount of chlorophyll during radish cotyledon expansion", "setting": "[2]", "value": "did not change the total amount of chlorophyll"},
      {"measurement": "Change in fresh weight", "setting": "[2]; NAPE-2 20 mg/L, kinetin 0.2 mg/l, 2 mM PB pH 6.0, 25° C., 72 hours, n = 3", "value": "18.90 ± 1.74 mg and 21.37 ± 1.09 mg and 22.52 ± 3.42 mg"},
      {"measurement": "Change in fresh weight, % of control", "setting": "[2]; [8]", "value": "110 % of control and 108 % of control"},
      {"measurement": "Chlorophyll a/b", "setting": "[2]; [8]", "value": 1.82},
      {"measurement": "Type of hormone-like activity", "setting": "[2]", "value": "cytokinin-like activity"},
      {"measurement": "Increase of cotyledon fresh weight", "setting": "[2]; summary of Table 1", "value": "about 10%"}
    ]}
  ]
}
